Assays:
Cathepsin B [1] = molecular target: T1, Cathepsin B (Homo sapiens, UniProt P07858); assay: Inhibition of human recombinant cathepsin B using Z-Arg-Arg-pNA as substrate after 10 mins by […] analysis
[2] = Inhibition of human cathepsin L using Z-Phe-Arg-pNA as substrate after 10 mins by […] analysis
Cathepsin S [3] = molecular target: T2, Cathepsin S (Homo sapiens, UniProt P25774); assay: Inhibition of human recombinant cathepsin S using Z-Phe-Arg-pNA as substrate after 10 mins by […] analysis
Target sequence in this assay (P25774 whole entry): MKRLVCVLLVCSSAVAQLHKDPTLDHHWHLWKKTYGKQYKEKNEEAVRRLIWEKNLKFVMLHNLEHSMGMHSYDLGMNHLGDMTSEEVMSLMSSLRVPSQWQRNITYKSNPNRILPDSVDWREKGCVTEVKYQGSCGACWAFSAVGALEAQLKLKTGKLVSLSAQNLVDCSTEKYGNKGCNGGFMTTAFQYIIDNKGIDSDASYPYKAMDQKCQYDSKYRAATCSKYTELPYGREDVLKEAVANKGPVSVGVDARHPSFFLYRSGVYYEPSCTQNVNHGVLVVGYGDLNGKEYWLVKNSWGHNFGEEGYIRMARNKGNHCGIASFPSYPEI

Cathepsin K [4] = molecular target: T3, Cathepsin K (Homo sapiens, UniProt P43235); assay: Inhibition of human recombinant cathepsin K using Z-Leu-Arg-AMC as substrate after 10 mins by fluorimetric analysis
T3 sequence (P43235 whole entry): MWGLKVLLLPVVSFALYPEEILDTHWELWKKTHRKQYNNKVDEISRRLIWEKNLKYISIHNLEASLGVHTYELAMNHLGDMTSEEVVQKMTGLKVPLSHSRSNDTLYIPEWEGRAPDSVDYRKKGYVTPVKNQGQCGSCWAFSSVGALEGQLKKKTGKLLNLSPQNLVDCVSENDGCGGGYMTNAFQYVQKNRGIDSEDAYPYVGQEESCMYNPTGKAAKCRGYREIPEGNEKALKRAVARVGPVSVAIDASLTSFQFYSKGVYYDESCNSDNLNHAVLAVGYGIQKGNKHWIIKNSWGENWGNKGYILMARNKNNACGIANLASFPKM

Cathepsin K [5] = molecular target: T3, Cathepsin K; assay: Inhibition of human recombinant cathepsin K using Z-Leu-Arg-AMC as substrate after 80 mins by fluorimetric analysis
Cathepsin S [6] = molecular target: T2, Cathepsin S
Target sequence in this assay (P25774 115-331 limits assumed): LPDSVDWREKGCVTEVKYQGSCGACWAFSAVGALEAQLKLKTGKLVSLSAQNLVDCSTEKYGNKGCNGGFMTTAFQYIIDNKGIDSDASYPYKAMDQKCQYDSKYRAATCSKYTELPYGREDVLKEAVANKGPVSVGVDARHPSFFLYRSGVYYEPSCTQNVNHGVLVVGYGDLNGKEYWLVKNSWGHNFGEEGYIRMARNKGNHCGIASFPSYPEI
Description: Binding affinity to human recombinant cathepsin S assessed as compound-enzyme half life

[7] = molecular target: T4, Cathepsin K (Homo sapiens) (UniProt P43235)
T4 sequence (whole entry): T3 sequence (P43235 whole entry)
Description: Binding affinity to human recombinant cathepsin K assessed as compound-enzyme half life

Cathepsin B [8] = molecular target: T1, Cathepsin B
Description: Binding affinity to human recombinant cathepsin B assessed as compound-enzyme half life

Cathepsin B [9] = molecular target: T1, Cathepsin B; assay: Inhibition of human recombinant cathepsin B using Z-Arg-Arg-pNA as substrate after 80 mins by […] analysis
[10] = Inhibition of human cathepsin L using Z-Phe-Arg-pNA as substrate incubated for 30 mins prior to substrate addition measured after 10 mins by […] analysis
Cathepsin S [11] = molecular target: T2, Cathepsin S; assay: Inhibition of human recombinant cathepsin S using Z-Phe-Arg-pNA as substrate after 80 mins by […] analysis
Target sequence in this assay (P25774 whole entry): as the sequence (P25774 whole entry) above

Ki (Cathepsin B [1]) [nM]	Ki [2] [nM]	Ki (Cathepsin S [3]) [nM]	Ki (Cathepsin K [4]) [nM]	Ki (Cathepsin K [5]) [nM]	T1/2 (Cathepsin S [6]) [min]	T1/2 [7] [min]	T1/2 (Cathepsin B [8]) [min]	Ki (Cathepsin B [9]) [nM]	Ki [10] [nM]	Ki (Cathepsin S [11]) [nM]	Structure (SMILES)
> 40000	18000	8400	230								CCN(CC)c1ccc2cc(C(=O)NC3(C(=O)NCC#N)CCCCC3)c(=O)oc2c1
				19	30	30	30	140	760	750	CCN(CC)c1ccc2cc(C(=O)NC3(C(=O)N(C)N(C)C#N)CCCCC3)c(=O)oc2c1
> 40000	> 40000	6600	880								CN(C)c1cccc2c(S(=O)(=O)NC3(C(=O)NCC#N)CCCCC3)cccc12

Source: ChEMBL document CHEMBL2203002, “Fluorescent nitrile-based inhibitors of cysteine cathepsins” (Bioorg Med Chem Lett, 2012)
